# pIC50: −log10 of the molar value.
# Columns and labels:
# Assay in all cases: Cell proliferation assay (CellTiter-Glo)
# Format in all cases: cell-based
# KM12 (TPM3-TRKA) = conditions: Homo sapiens, anti-cell proliferation, 72 hours
# Method in brief: (§1)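 Cells seeded 24 h, then exposed to compounds for 72 h at 37° C., 5% CO2. Proliferation read by CellTiter-Glo luminescent ATP detection; IC50 from dose-response fits.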
# KG-1 cell (OP2-FGFR1) = conditions: Homo sapiens, anti-cell proliferation, 72 hours
# Method in brief: as §1
# BaF3 EML4-ALK = target: T1, BaF3 EML4-ALK (Homo sapiens, UniProt Q9UM73); conditions: anti-cell proliferation, 72 hours
# T1 construct: The EML4-ALK gene (variant 1) was synthesized at GenScript and cloned into pCDH-CMV-MCS-EF1-Puro plasmid (System Biosciences, Inc); fused on or other part: EML4 N-terminal part (variant 1: exons 1-13, with the coiled-coil that oligomerises the fusion) fused to the intracellular part of ALK, which contains the kinase domain; Q9HC35 (Echinoderm microtubule-associated protein-like 4)
# Method in brief: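 Ba/F3 cells were lentivirally transduced with EML4-ALK variant 1 and selected for puromycin resistance and IL-3-independent growth. Proliferation was measured by CellTiter-Glo ATP luminescence to give IC50.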
# T1 sequence (Q9UM73 whole entry, stated change not applied, the tested form may be a part): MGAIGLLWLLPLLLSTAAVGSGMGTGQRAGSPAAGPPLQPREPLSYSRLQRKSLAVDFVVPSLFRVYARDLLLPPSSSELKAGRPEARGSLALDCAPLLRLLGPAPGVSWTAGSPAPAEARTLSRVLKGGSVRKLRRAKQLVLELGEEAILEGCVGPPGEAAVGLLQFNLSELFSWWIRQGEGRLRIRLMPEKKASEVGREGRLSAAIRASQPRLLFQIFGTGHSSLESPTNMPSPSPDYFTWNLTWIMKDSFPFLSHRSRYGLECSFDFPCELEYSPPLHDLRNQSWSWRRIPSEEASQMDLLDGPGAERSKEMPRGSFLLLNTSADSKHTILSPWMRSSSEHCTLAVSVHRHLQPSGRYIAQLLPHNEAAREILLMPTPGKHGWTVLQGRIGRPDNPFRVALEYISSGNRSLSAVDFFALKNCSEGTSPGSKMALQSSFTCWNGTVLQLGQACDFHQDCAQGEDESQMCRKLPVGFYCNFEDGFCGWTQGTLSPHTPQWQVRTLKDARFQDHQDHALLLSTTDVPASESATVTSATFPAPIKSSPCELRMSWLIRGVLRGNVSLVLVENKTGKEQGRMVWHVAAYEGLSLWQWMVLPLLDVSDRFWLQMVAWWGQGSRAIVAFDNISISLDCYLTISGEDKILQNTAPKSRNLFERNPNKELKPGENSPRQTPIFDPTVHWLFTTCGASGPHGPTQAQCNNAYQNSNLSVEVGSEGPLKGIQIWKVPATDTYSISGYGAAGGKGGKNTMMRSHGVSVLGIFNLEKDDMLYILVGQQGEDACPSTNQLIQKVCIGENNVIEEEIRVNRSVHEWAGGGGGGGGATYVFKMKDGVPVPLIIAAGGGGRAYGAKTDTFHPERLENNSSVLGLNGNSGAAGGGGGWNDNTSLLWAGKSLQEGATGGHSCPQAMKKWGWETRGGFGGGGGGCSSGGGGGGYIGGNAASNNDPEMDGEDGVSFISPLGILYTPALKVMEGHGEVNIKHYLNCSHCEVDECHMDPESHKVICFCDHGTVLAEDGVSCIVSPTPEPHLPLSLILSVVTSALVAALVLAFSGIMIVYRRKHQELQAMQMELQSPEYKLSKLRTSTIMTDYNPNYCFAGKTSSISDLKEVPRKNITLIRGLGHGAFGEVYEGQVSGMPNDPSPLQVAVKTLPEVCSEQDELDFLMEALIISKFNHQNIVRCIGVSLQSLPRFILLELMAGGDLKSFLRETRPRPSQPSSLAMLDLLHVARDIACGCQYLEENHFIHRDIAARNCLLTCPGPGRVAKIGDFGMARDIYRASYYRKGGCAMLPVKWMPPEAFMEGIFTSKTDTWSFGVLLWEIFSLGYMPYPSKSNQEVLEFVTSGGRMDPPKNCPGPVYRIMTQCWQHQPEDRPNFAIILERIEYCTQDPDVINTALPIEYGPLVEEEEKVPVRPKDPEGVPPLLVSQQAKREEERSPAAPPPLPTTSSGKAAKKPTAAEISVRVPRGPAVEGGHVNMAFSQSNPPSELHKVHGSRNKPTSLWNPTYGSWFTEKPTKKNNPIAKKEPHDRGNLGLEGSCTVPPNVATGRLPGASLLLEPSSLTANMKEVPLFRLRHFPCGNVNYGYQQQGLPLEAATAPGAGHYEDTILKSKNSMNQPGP
pIC50 (BaF3 EML4-ALK),SMILES,pIC50 (KM12 (TPM3-TRKA)),pIC50 (KG-1 cell (OP2-FGFR1))
5.66,"C[C@H]1CNC(=O)c2cnn3cc4c(nc23)N(Cc2cc(F)cnc2O1)C1(CCCC1)CO4 [Compound 57, (12′S)-8′-fluoro-12′-methyl-3′H,6′H,12′H,13′H,14′H,15′H-spiro[cyclopentane-1,4′-[2,11]-dioxa[5,10,14,17,18,19]hexaaza-[18,1](metheno)[1,4]oxazino[3,4-i]pyrazolo[4,3-f]pyrido[3,2-l] [1,4,8,10]oxatriazacyclotridecin]-15′-one]",> 9.70,5.40
6.69,"C[C@@H]1COc2ncc(F)cc2CN2c3nc4c(cnn4cc3OCC23CCC3)C(=O)N1 [Compound 58, (13′R)-8′-fluoro-13′-methyl-3′H,6′H,12′H,13′H,14′H,15′H-spiro[cyclobutane-1,4′-[2,11]-dioxa[5,10,14,17,18,19]hexaaza-[18,1](metheno)[1,4]oxazino-[3,4-i]pyrazolo[4,3-f]pyrido-[3,2-l][1,4,8,10]oxatriazacyclo-tridecin]-15′-one]",> 9.70,5.79
5.99,"C[C@@H]1COc2ncc(F)cc2CN2c3nc4c(cnn4cc3OCC23CCCC3)C(=O)N1 [Compound 59, (13′R)-8′-fluoro-13′-methyl-3′H,6′H,12′H,13′H,14′H,15′H-spiro[cyclopentane-1,4′-[2,11]-dioxa[5,10,14,17,18,19]hexaaza-[18,1](metheno)[1,4]oxazino-[3,4-i]pyrazolo[4,3-f]pyrido-[3,2-l][1,4,8,10]oxatriazacyclo-tridecin]-15′-one]",> 9.70,5.70
< 5.00,"C[C@@H]1COc2ncc(F)cc2CN2c3nc4c(cnn4cc3OC[C@H]2C(N)=O)C(=O)N1 [Compound 60, (4S,13R)-8-fluoro-13-methyl-15-oxo-3,4,12,13,14,15-hexahydro-6H-18,1-(metheno)[1,4]oxazino[3,4-i]pyrazolo[4,3-f]pyrido[3,2-l][1,4,8,10]oxatriazacyclotridecine-4-carboxamide]",7.29,< 5.00
5.40,"C[C@@H]1COc2ncc(F)cc2CN2C[C@H](O)COc3cn4ncc(c4nc32)C(=O)N1 [Compound 61, (4S,14R)-9-fluoro-4-hydroxy-14-methyl-4,5,14,15-tetrahydro-3H,7H-19,1-(methano)[1,4]-oxazepino[3,4-i]pyrazolo[4,3-f]-pyrido[3,2-l][1,4,8,10]oxatriaza-cyclotridecin-16(13H)-one]",6.32,6.32
6.24,"C[C@@H]1COc2ncc(F)cc2CN2c3nc4c(cnn4cc3OCC23CC(F)(F)C3)C(=O)N1 [Compound 63, (13′R)-3,3,8′-trifluoro-13′-methyl-3′H,6′H,12′H,13′H,14′H,15′H-spiro[cyclobutane-1,4′-[2,11]-dioxa[5,10,14,17,18,19]hexaaza-[18,1](metheno)[1,4]oxazino[3,4-i]pyrazolo[4,3-f]pyrido[3,2-l] [1,4,8,10]oxatriazacyclotridecin]-15′-one]",> 9.70,5.00
5.91,"C[C@H]1CNC(=O)c2cnn3cc4c(nc23)N(Cc2cc(F)cnc2O1)C1(CO4)CC(F)(F)C1 [Compound 64, (12′S)-3,3,8′-trifluoro-12′-methyl-3′H,6′H,12′H,13′H,14′H,15′H-spiro[cyclobutane-1,4′-[2,11]-dioxa[5,10,14,17,18,19]hexaaza-[18,1](metheno)[1,4]oxazino[3,4-i]pyrazolo[4,3-f]pyrido[3,2-l] [1,4,8,10]oxatriazacyclotridecin]-15′-one]",> 9.70,5.00
6.79,"CC[C@@H]1COc2cn3ncc4c3nc2N1Cc1cc(F)cnc1OCC(C)(C)NC4=O [Compound 65, (4R)-4-ethyl-8-fluoro-13,13-dimethyl-3,4,13,14-tetrahydro-6H-18,1-(metheno)[1,4]oxazino[3,4-i]pyrazolo[4,3-f]pyrido[3,2-l][1,4,8,10]oxatriazacyclotridecin-15(12H)-one]",> 9.70,7.38
7.49,"C[C@@H]1COc2cn3ncc4c3nc2N1Cc1cc(F)cnc1OCC1(CC1)CNC4=O [Compound 67, (16′R)-12′-fluoro-16′-methyl-4′H,5′H,6′H,8′H,14′H,16′H,17′H-spiro[cyclopropane-1,7′-[9,18]-dioxa[1,2,5,10,15,20]hexaaza-[1,19](metheno)[1,4]oxazino[4,3-e]pyrazolo[3,4-h]pyrido[2,3-b] [1,5,7,11]oxatriazacyclotetradecin]-4′-one]",> 9.70,8.06
6.47,"C[C@@H]1COc2ncc(F)cc2CN2c3nc4c(cnn4cc3OCC2(C)C)C(=O)N1 [Compound 68, (13R)-8-fluoro-4,4,13-trimethyl-3,4,13,14-tetrahydro-6H-18,1-(metheno)[1,4]oxazino[3,4-i]-pyrazolo[4,3-f]pyrido[3,2-l] [1,4,8,10]oxatriazacyclotridecin-15(12H)-one]",> 9.70,5.24
7.06,"CC1CCNC(=O)c2cnn3cc4c(nc23)N(Cc2cc(F)cnc2O1)[C@H](C)CO4 (stereo partly drawn) [Compound 69, (16R)-12-fluoro-8,16-dimethyl-5,6,7,8,16,17-hexahydro-4H,14H-1,19-(metheno)[1,4]oxazino[4,3-e]pyrazolo[3,4-h]pyrido[2,3-b] [1,5,7,11]oxatriazacyclotetradecin-4-one]",> 9.70,7.63
7.45,"C[C@@H]1COc2cn3ncc4c3nc2N1Cc1cc(F)cnc1OCCC(C)(C)NC4=O [Compound 70, (16R)-12-fluoro-6,6,16-trimethyl-5,6,7,8,16,17-hexahydro-4H,14H-1,19-(metheno)[1,4]oxazino[4,3-e]pyrazolo[3,4-h]pyrido[2,3-b] [1,5,7,11]oxatriazacyclotetradecin-4-one]",> 9.70,7.29
7.70,"CC1CNC(=O)c2cnn3cc4c(nc23)N(Cc2cc(F)cnc2OC1)[C@H](C)CO4 (stereo partly drawn) [Compound 71, (16R)-12-fluoro-7,16-dimethyl-5,6,7,8,16,17-hexahydro-4H,14H-1,19-(metheno)[1,4]oxazino[4,3-e]pyrazolo[3,4-h]pyrido[2,3-b] [1,5,7,11]oxatriazacyclotetradecin-4-one]",> 9.70,7.92
7.73,"CC[C@@H]1COc2cn3ncc4c3nc2N1Cc1cc(F)cnc1OCC1(CC1)NC4=O [Compound 72, (4′R)-4′-ethyl-8′-fluoro-3′H,4′H,6′H,12′H,14′H,15′H-spiro[cyclopropane-1,13′-[2,11]dioxa[5,10,14,17,18,19]hexaaza-[18,1](metheno)[1,4]oxazino-[3,4-i]pyrazolo[4,3-f]pyrido[3,2-l][1,4,8,10]oxatriazacyclotridecin]-15′-one]",> 9.70,8.41
7.03,"CC[C@@H]1COc2cn3ncc4c3nc2N1Cc1cc(F)cnc1OCC1(CCC1)NC4=O [Compound 73, (4′R)-4′-ethyl-8′-fluoro-3′H,4′H,6′H,12′H,14′H,15′H-spiro[cyclobutane-1,13’-[2,11]-dioxa[5,10,14,17,18,19]hexaaza-[18,1](metheno)[1,4]oxazino[3,4-i]pyrazolo[4,3-f]pyrido[3,2-l] [1,4,8,10]oxatriazacyclotridecin]-15′-one]",> 9.70,8.30
< 5.00,"C[C@@H]1COc2ncc(F)cc2CN2CC(F)(F)COc3cn4ncc(c4nc32)C(=O)N1 [Compound 74, (14R)-4,4,9-trifluoro-14-methyl-4,5,14,15-tetrahydro-3H,7H-19,1-(metheno)[1,4]oxazepino[3,4-i]-pyrazolo[4,3-f]pyrido[3,2-l] [1,4,8,10]oxatriazacyclotridecin-16(13H)-one]",7.08,5.52
7.70,"CC[C@@H]1COc2cn3ncc4c3nc2N1Cc1cc(F)cnc1OCC[C@H](C)NC4=O [Compound 75, (6S,16R)-16-ethyl-12-fluoro-6-methyl-5,6,7,8,16,17-hexahydro-4H,14H-1,19-(metheno)[1,4]-oxazino[4,3-e]pyrazolo[3,4-h]-pyrido[2,3-b][1,5,7,11]oxatriaza-cyclotetradecin-4-one]",> 9.70,8.01
7.45,"CC[C@@H]1COc2cn3ncc4c3nc2N1Cc1cc(F)cnc1OCC(C)(C)CNC4=O [Compound 76, (16R)-16-ethyl-12-fluoro-7,7-dimethyl-5,6,7,8,16,17-hexahydro-4H,14H-1,19-(metheno)[1,4]-oxazino[4,3-e]pyrazolo[3,4-h]-pyrido[2,3-b][1,5,7,11]oxatriaza-cyclotetradecin-4-one]",> 9.70,9.10
< 5.00,"C[C@H]1CNC(=O)c2cnn3cc4c(nc23)N(Cc2cc(F)cnc2O1)CC(F)(F)CO4 [Compound 77, (13S)-4,4,9-trifluoro-13-methyl-4,5,14,15-tetrahydro-3H,7H-19,1-(metheno)[1,4]oxazepino[3,4-i]-pyrazolo[4,3-f]pyrido[3,2-l] [1,4,8,10]oxatriazacyclotridecin-16(13H)-one]",6.35,5.00
7.48,"C[C@@H]1COc2cn3ncc4c3nc2N1Cc1cc(F)cnc1OC[C@@H](F)CNC4=O [Compound 78, (7S,16R)-7,12-difluoro-16-methyl-5,6,7,8,16,17-hexahydro-4H,14H,- 1,19-(metheno)[1,4]oxazino[4,3-e]pyrazolo[3,4-h]pyrido[2,3-b] [1,5,7,11]oxatriazacyclotetradecin-4-one]",> 9.70,7.99
